Values quoted from earlier work in patent publication US6432400B1, “Specific pancreatic lipase inhibitors and their applications” (Laboratoire Laphal (Laboratoire de Pharmacologie Appliquee), priority 1997, dated 2002).

Key:
pancreatic lipase = molecular target: T1, pancreatic lipase (Homo sapiens, UniProt P16233); details: 1 mol of THL/mol of enzyme
T1 sequence (P16233 17-465): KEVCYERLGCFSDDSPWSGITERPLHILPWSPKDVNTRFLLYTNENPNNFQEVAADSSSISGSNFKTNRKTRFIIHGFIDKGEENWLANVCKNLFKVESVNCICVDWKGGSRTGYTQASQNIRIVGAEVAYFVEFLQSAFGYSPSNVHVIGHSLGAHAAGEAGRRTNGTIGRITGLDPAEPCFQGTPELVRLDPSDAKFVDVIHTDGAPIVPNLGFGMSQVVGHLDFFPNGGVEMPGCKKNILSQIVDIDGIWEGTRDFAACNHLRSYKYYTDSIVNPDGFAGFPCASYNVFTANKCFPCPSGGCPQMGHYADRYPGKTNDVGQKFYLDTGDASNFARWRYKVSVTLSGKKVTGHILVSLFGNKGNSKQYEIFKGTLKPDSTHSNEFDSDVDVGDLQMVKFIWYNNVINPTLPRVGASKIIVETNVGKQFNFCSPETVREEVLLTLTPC

[1] = tested on: carboxylester lipase, gastric lipase and lipase stimulated by the bile salts in human milk; details: inhibits carboxylester lipase, gastric lipase and bile-salt-stimulated lipase of human milk

## CCCCCCCCCCC[C@@H](C[C@@H]1OC(=O)[C@H]1CCCCCC)OC(=O)[C@H](CC(C)C)NC=O [THL, tetrahydrolipstatin]
Pancreatic lipase
  inhibition of the lipolytic activity: complete inhibition
[1]
  specificity for pancreatic lipase: not specific for pancreatic lipase
